According to the NIST ThermoML archive (doi:10.1016/j.jct.2004.07.031):
Several values for one entry are separate records, joined by “and”; a condition that tells them apart may be missing. Equal values may be shown once.

Assay: molar heat capacity at constant pressure
Details: 101.33 kPa, Crystal, PPMS instrument (Quantum Design)

O=P([O-])([O-])[O-].[La+3] [lanthanum orthophosphate]
Details | molar heat capacity at constant pressure
2.046 K | 0.00182 J/K/mol
2.066 K | 0.00139 J/K/mol
2.067 K | 0.0014 J/K/mol
2.068 K | 0.00141 J/K/mol
2.083 K | 0.00123 J/K/mol
2.246 K | 0.0017 J/K/mol
2.247 K | 0.0017 J/K/mol and 0.00172 J/K/mol
2.415 K | 0.00201 J/K/mol
2.429 K | 0.00212 J/K/mol
2.43 K | 0.00213 J/K/mol
2.616 K | 0.00265 J/K/mol
2.617 K | 0.00266 J/K/mol
2.618 K | 0.00266 J/K/mol
2.763 K | 0.0031 J/K/mol
2.802 K | 0.0034 J/K/mol
2.803 K | 0.00342 J/K/mol
2.805 K | 0.00339 J/K/mol
2.989 K | 0.00467 J/K/mol
2.992 K | 0.00476 J/K/mol
2.994 K | 0.00473 J/K/mol
3 K | 0.0053 J/K/mol
3.115 K | 0.00524 J/K/mol
3.19 K | 0.00601 J/K/mol
3.191 K | 0.00593 J/K/mol and 0.00603 J/K/mol
3.383 K | 0.00728 J/K/mol
3.385 K | 0.00731 J/K/mol
3.386 K | 0.0073 J/K/mol
3.473 K | 0.00765 J/K/mol
3.505 K | 0.00809 J/K/mol
3.578 K | 0.00852 J/K/mol
3.58 K | 0.00853 J/K/mol and 0.00852 J/K/mol
3.772 K | 0.00994 J/K/mol
3.775 K | 0.00998 J/K/mol
3.778 K | 0.00998 J/K/mol
3.839 K | 0.01034 J/K/mol
3.969 K | 0.01147 J/K/mol
3.973 K | 0.01149 J/K/mol
3.976 K | 0.01146 J/K/mol
4.008 K | 0.01178 J/K/mol
4.168 K | 0.0131 J/K/mol
4.172 K | 0.01315 J/K/mol
4.174 K | 0.01314 J/K/mol
4.207 K | 0.01339 J/K/mol
4.368 K | 0.01481 J/K/mol
4.371 K | 0.01487 J/K/mol
4.372 K | 0.01494 J/K/mol
4.518 K | 0.01632 J/K/mol
4.565 K | 0.01686 J/K/mol
4.568 K | 0.01687 J/K/mol
4.569 K | 0.0169 J/K/mol
4.576 K | 0.01697 J/K/mol
4.763 K | 0.01882 J/K/mol
4.765 K | 0.01903 J/K/mol
4.768 K | 0.01911 J/K/mol
4.946 K | 0.02113 J/K/mol
4.961 K | 0.02146 J/K/mol
4.965 K | 0.02154 J/K/mol
4.967 K | 0.02153 J/K/mol
5.031 K | 0.02216 J/K/mol
5.166 K | 0.02384 J/K/mol
5.173 K | 0.02394 J/K/mol
5.174 K | 0.02375 J/K/mol
5.323 K | 0.02601 J/K/mol
5.367 K | 0.0265 J/K/mol
5.369 K | 0.02666 J/K/mol
5.37 K | 0.02686 J/K/mol
5.546 K | 0.02914 J/K/mol
5.565 K | 0.02951 J/K/mol
5.574 K | 0.02974 J/K/mol and 0.02916 J/K/mol
5.695 K | 0.03139 J/K/mol
5.77 K | 0.03276 J/K/mol
5.771 K | 0.03277 J/K/mol
5.774 K | 0.03288 J/K/mol
5.965 K | 0.03647 J/K/mol
5.967 K | 0.03583 J/K/mol
